Measurements: patent US20250388565A1, “ESTROGEN RECEPTOR ALPHA DEGRADERS AND METHODS OF USE THEREOF” (Relay Therapeutics, Inc., priority 2022, published 2025)

Molecular target: T1, ERα protein (HiBiT-tagged) in ESR1_HiBiT KI MCF7 cells (Homo sapiens, UniProt P03372)
T1 sequence (P03372 1-595): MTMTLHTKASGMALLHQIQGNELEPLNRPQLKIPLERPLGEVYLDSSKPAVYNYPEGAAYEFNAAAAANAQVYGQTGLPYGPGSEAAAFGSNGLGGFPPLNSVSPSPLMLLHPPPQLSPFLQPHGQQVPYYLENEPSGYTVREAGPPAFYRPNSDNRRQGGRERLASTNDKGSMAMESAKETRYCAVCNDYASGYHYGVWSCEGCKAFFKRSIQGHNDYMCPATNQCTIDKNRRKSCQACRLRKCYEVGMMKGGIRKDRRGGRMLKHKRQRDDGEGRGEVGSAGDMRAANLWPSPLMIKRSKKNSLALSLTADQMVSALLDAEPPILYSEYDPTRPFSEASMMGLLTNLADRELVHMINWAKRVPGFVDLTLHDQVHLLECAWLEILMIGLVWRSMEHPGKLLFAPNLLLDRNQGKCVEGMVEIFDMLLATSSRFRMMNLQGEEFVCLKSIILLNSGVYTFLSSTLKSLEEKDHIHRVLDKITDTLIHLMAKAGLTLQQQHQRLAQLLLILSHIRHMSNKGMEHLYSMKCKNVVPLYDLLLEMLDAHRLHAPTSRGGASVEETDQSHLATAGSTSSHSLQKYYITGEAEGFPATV
Test: Nano Glo HiBiT Lytic Degradation Assay
Type: cell-based
Settings: 6 hours with compound, 14-point dose response 1:3, bell-shape curve fit, half-maximal effect of first Hill model, read-out: MCF7 ESR1 HiBiT - (DC50)
How it was run: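 Lytic Nano-Glo HiBiT luminescence quantified ERα remaining after a 6 h, 37° C compound exposure of MCF7 cells carrying endogenous HiBiT-tagged ESR1. Dosing used 14 threefold dilutions from a 10 mM DMSO stock (0.1% DMSO final), run in duplicate. Signals were corrected for cell-free background and expressed relative to DMSO, and DC50 came from a bell-shaped curve fit (first Hill model half-maximum).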

Row | SMILES | DC50
1 | Cc1cc(F)ccc1[C@@H]1CC(F)(F)c2cc(O)ccc2[C@@H]1c1ccc(N2CCC(CN3CCN(c4ccc5c(c4)CN([C@H]4CCC(=O)NC4=O)C5=O)CC3)CC2)cc1 [Compound I-327, (S)-3-(5-(4-((1-(4-((1S,2R)-4,4-difluoro-2-(4-fluoro-2-methylphenyl)-6-hydroxy-1,2,3,4-tetrahydronaphthalen-1-yl)phenyl)piperidin-4-yl)methyl)piperazin-1-yl)-1-oxoisoindolin-2-yl)piperidine-2,6-dione] | ≥ 10000 nM
2 | O=C1CC[C@H](N2Cc3cc(N4CCN(CC5CCN(c6ccc([C@H]7c8ccc(O)cc8C(F)(F)C[C@H]7c7ccc(C(F)(F)F)cc7)cc6)CC5)CC4)ccc3C2=O)C(=O)N1 [Compound I-330, (S)-3-(5-(4-((1-(4-((1S,2R)-4,4-difluoro-6-hydroxy-2-(4-(trifluoromethyl)phenyl)-1,2,3,4-tetrahydronaphthalen-1-yl)phenyl)piperidin-4-yl)methyl)piperazin-1-yl)-1-oxoisoindolin-2-yl)piperidine-2,6-dione] | 35 nM
3 | C[C@@H]1Cc2cc(O)ccc2[C@H](c2ccc(N3CCC(CN4CCN(c5ccc6c(c5)CN([C@H]5CCC(=O)NC5=O)C6=O)CC4)CC3)cc2)[C@@H]1c1ccccc1 [Compound I-333, (S)-3-(5-(4-((1-(4-((1S,2R,3R)-6-hydroxy-3-methyl-2-phenyl-1,2,3,4-tetrahydronaphthalen-1-yl)phenyl)piperidin-4-yl)methyl)piperazin-1-yl)-1-oxoisoindolin-2-yl)piperidine-2,6-dione] | 21 nM
4 | C[C@H]1Cc2cc(O)ccc2[C@H](c2ccc(N3CCC(CN4CCN(c5ccc6c(c5)CN([C@H]5CCC(=O)NC5=O)C6=O)CC4)CC3)cc2)[C@@H]1c1ccccc1 [Compound I-334, (S)-3-(5-(4-((1-(4-((1S,2R,3S)-6-hydroxy-3-methyl-2-phenyl-1,2,3,4-tetrahydronaphthalen-1-yl)phenyl)piperidin-4-yl)methyl)piperazin-1-yl)-1-oxoisoindolin-2-yl)piperidine-2,6-dione] | 28 nM
5 | [2H]c1c([2H])c([2H])c([C@H]2CC(F)(F)c3cc(O)ccc3[C@H]2c2ccc(N3CCC(CN4CCN(c5ccc6c(c5)CN([C@H]5CCC(=O)NC5=O)C6=O)CC4)CC3)cc2)c([2H])c1[2H] [Compound I-335, (S)-3-(5-(4-((1-(4-((1R,2S)-4,4-difluoro-6-hydroxy-2-(phenyl-d5)-1,2,3,4-tetrahydronaphthalen-1-yl)phenyl)piperidin-4-yl)methyl)piperazin-1-yl)-1-oxoisoindolin-2-yl)piperidine-2,6-dione] | 0.36 nM
6 | O=C1CC[C@H](N2Cc3cc(N4CCN(CC5CCN(c6ccc([C@H]7c8ccc(O)cc8C(F)(F)C[C@H]7c7ccccc7)nc6)CC5)CC4)ccc3C2=O)C(=O)N1 [Compound I-337, (S)-3-(5-(4-((1-(6-((1R,2R)-4,4-difluoro-6-hydroxy-2-phenyl-1,2,3,4-tetrahydronaphthalen-1-yl)pyridin-3-yl)piperidin-4-yl)methyl)piperazin-1-yl)-1-oxoisoindolin-2-yl)piperidine-2,6-dione] | ≥ 10000 nM
7 | C[C@]1(c2ccccc2)CCc2cc(O)ccc2[C@@H]1c1ccc(N2CCC(CN3CCN(c4ccc5c(c4)CN([C@H]4CCC(=O)NC4=O)C5=O)CC3)CC2)cc1 [Compound I-344, (S)-3-(5-(4-((1-(4-((1R,2S)-6-hydroxy-2-methyl-2-phenyl-1,2,3,4-tetrahydronaphthalen-1-yl)phenyl)piperidin-4-yl)methyl)piperazin-1-yl)-1-oxoisoindolin-2-yl)piperidine-2,6-dione] | 84 nM
8 | O=C1CC[C@H](N2Cc3cc(N4CCN(CC5CCN(c6ccc([C@H]7c8ccc(O)cc8CO[C@H]7c7ccc(C(F)(F)F)cc7)cc6)CC5)CC4)ccc3C2=O)C(=O)N1 [Compound I-350, (S)-3-(5-(4-((1-(4-((3R,4S)-7-hydroxy-3-(4-(trifluoromethyl)phenyl)isochroman-4-yl)phenyl)piperidin-4-yl)methyl)piperazin-1-yl)-1-oxoisoindolin-2-yl)piperidine-2,6-dione] | 20 nM
9 | CC(C)c1ccccc1[C@H]1OCc2cc(O)ccc2[C@H]1c1ccc(N2CCC(CN3CCN(c4ccc5c(c4)CN([C@H]4CCC(=O)NC4=O)C5=O)CC3)CC2)cc1 [Compound I-351, (S)-3-(5-(4-((1-(4-((3S,4R)-7-hydroxy-3-(2-isopropylphenyl)isochroman-4-yl)phenyl)piperidin-4-yl)methyl)piperazin-1-yl)-1-oxoisoindolin-2-yl)piperidine-2,6-dione] | 0.2 nM

The next lines start with the values.

Row | DC50 | SMILES
10 | 9 nM | O=C1CC[C@H](N2Cc3cc(N4CCN(CC5CCN(c6ccc([C@H]7c8ccc(O)cc8C(F)(F)C[C@H]7c7ccccc7)cc6F)CC5)CC4)ccc3C2=O)C(=O)N1 [Compound I-328, (S)-3-(5-(4-((1-(4-((1S,2R)-4,4-difluoro-6-hydroxy-2-phenyl-1,2,3,4-tetrahydronaphthalen-1-yl)-2-fluorophenyl)piperidin-4-yl)methyl)piperazin-1-yl)-1-oxoisoindolin-2-yl)piperidine-2,6-dione]
11 | 0.92 nM | O=C1CC[C@H](N2Cc3cc(N4CCN(CC5CCN(c6ccc([C@@H]7c8ccc(O)cc8C(F)(F)C[C@@H]7c7ccc(C(F)(F)F)cc7)cc6)CC5)CC4)ccc3C2=O)C(=O)N1 [Compound I-329, (S)-3-(5-(4-((1-(4-((1R,2S)-4,4-difluoro-6-hydroxy-2-(4-(trifluoromethyl)phenyl)-1,2,3,4-tetrahydronaphthalen-1-yl)phenyl)piperidin-4-yl)methyl)piperazin-1-yl)-1-oxoisoindolin-2-yl)piperidine-2,6-dione]
12 | 15 nM | [2H]c1c([2H])c([2H])c([C@@H]2CC(F)(F)c3cc(O)ccc3[C@@H]2c2ccc(N3CCC(CN4CCN(c5ccc6c(c5)CN([C@H]5CCC(=O)NC5=O)C6=O)CC4)CC3)cc2)c([2H])c1[2H] [Compound I-336, (S)-3-(5-(4-((1-(4-((1S,2R)-4,4-difluoro-6-hydroxy-2-(phenyl-d5)-1,2,3,4-tetrahydronaphthalen-1-yl)phenyl)piperidin-4-yl)methyl)piperazin-1-yl)-1-oxoisoindolin-2-yl)piperidine-2,6-dione]
13 | 10 nM | O=C1CC[C@H](N2Cc3cc(N4CCN(CC5CCN(c6ccc([C@H]7c8ccc(O)cc8C(F)(F)C[C@H]7c7ccccc7)cn6)CC5)CC4)ccc3C2=O)C(=O)N1 [Compound I-338, (3S)-3-[5-[4-[[1-[5-[(1R,2R)-4,4-difluoro-6-hydroxy-2-phenyl-tetralin-1-yl]-2-pyridyl]-4-piperidyl]methyl]piperazin-1-yl]-1-oxo-isoindolin-2-yl]piperidine-2,6-dione]
14 | 0.31 nM | [2H]c1cc2c(c([2H])c1O)C([2H])C[C@H](c1ccccc1)[C@@H]2c1ccc(N2CCC(CN3CCN(c4ccc5c(c4)CN([C@H]4CCC(=O)NC4=O)C5=O)CC3)CC2)cn1 (stereo partly shown) [Compound I-339]
15 | ≥ 10000 nM | O=C1CC[C@H](N2Cc3cc(N4CCN(CC5CCN(c6ccc([C@H]7c8ccc(O)cc8CO[C@H]7c7ccc(F)cc7)cc6)CC5)CC4)ccc3C2=O)C(=O)N1 [Compound I-346, (S)-3-(5-(4-((1-(4-((3R,4S)-3-(4-fluorophenyl)-7-hydroxyisochroman-4-yl)phenyl)piperidin-4-yl)methyl)piperazin-1-yl)-1-oxoisoindolin-2-yl)piperidine-2,6-dione]
16 | 0.18 nM | O=C1CC[C@H](N2Cc3cc(N4CCN(CC5CCN(c6ccc([C@@H]7c8ccc(O)cc8CO[C@@H]7c7ccccc7F)cc6)CC5)CC4)ccc3C2=O)C(=O)N1 [Compound I-347, (S)-3-(5-(4-((1-(4-((3S,4R)-3-(2-fluorophenyl)-7-hydroxyisochroman-4-yl)phenyl)piperidin-4-yl)methyl)piperazin-1-yl)-1-oxoisoindolin-2-yl)piperidine-2,6-dione]
17 | ≥ 10000 nM | O=C1CC[C@H](N2Cc3cc(N4CCN(CC5CCN(c6ccc([C@H]7c8ccc(O)cc8CO[C@H]7c7ccccc7F)cc6)CC5)CC4)ccc3C2=O)C(=O)N1 [Compound I-348, (S)-3-(5-(4-((1-(4-((3R,4S)-3-(2-fluorophenyl)-7-hydroxyisochroman-4-yl)phenyl)piperidin-4-yl)methyl)piperazin-1-yl)-1-oxoisoindolin-2-yl)piperidine-2,6-dione]
18 | 0.39 nM | O=C1CC[C@H](N2Cc3cc(N4CCN(CC5CCN(c6ccc([C@@H]7c8ccc(O)cc8CO[C@@H]7c7ccc(C(F)(F)F)cc7)cc6)CC5)CC4)ccc3C2=O)C(=O)N1 [Compound I-349]
19 | 17 nM | CC(C)c1ccccc1[C@@H]1OCc2cc(O)ccc2[C@@H]1c1ccc(N2CCC(CN3CCN(c4ccc5c(c4)CN([C@H]4CCC(=O)NC4=O)C5=O)CC3)CC2)cc1 [Compound I-352, (S)-3-(5-(4-((1-(4-((3R,4S)-7-hydroxy-3-(2-isopropylphenyl)isochroman-4-yl)phenyl)piperidin-4-yl)methyl)piperazin-1-yl)-1-oxoisoindolin-2-yl)piperidine-2,6-dione]
